According to patent US20240018136A1, “CDK Inhibitors And Their Use As Pharmaceuticals” (Prelude Therapeutics, Incorporated, priority 2022, published 2024):

Tests used:
CDK2/Cyclin E2 = CDK2/Cyclin E2 (Homo sapiens, UniProt P24941); assay: CDK2/CyclinE2 enzymatic activity assay (TR-FRET); type: biochemical; settings: ATP 1 mM final, read-out: CDK2_E1 IC50
Summary of the method: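 Insect-cell-expressed CDK2/Cyclin E2 (1 nM), ULight-4E-BP1 (50 nM) and ATP (1 mM) in HEPES pH 7.4 buffer were preincubated 20 min at RT with compound (9-dose, 3-fold), started with 10 mM MgCl2 and run 45 min at 37 °C. EDTA/Eu-anti-P-4E-BP1 stop, 60 min TR-FRET detection; IC50 from 4-parameter Hill fit.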

CDK4/Cyclin D1 = molecular target: T1, CDK4/Cyclin D1 (Homo sapiens, UniProt P11802); assay: CDK4/CyclinD1 enzymatic activity assay (TR-FRET); type: biochemical; settings: ATP 2 mM final, read-out: CDK4_D1 IC50
T1 construct: purchased ProQinase; host or cells: insect cell
Summary of the method: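 Insect-cell-expressed CDK4/Cyclin D1 (1 nM) phosphorylated ULight-4E-BP1 peptide (100 nM) at 2 mM ATP in HEPES pH 7.4 buffer after 20 min compound preincubation. Reaction started with 10 mM MgCl2, ran 45 min at 37 °C, then EDTA quench and Eu-anti-phospho-4E-BP1 TR-FRET detection. IC50 from 9-point 3-fold dilutions, 4-parameter fit.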

OVCAR3 p-RB = assay: pRB ICW assay in OVCAR3 cells; type: cell-based; settings: Homo sapiens, OVCAR-3, incubated with compound for 2 hours
Summary of the method: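 OVCAR3 cells were treated 2 h at 37 °C with a 9-point half-log compound series, in duplicate, with 10 μM reference compound as maximum inhibition. Cells were then fixed, permeabilized and stained with anti-phospho-RB plus DRAQ5. In-cell western intensities were read at 700/800 nm on Odyssey CLx.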

T1 sequence (P11802 whole entry): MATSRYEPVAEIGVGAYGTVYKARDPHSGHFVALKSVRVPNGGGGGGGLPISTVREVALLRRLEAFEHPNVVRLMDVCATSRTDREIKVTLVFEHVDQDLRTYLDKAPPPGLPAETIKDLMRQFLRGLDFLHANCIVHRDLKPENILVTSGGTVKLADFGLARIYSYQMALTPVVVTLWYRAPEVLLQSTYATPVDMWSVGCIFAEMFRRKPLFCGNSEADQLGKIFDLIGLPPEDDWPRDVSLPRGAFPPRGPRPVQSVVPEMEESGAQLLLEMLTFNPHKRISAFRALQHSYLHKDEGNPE
T1 sequence (P24385 whole entry partner): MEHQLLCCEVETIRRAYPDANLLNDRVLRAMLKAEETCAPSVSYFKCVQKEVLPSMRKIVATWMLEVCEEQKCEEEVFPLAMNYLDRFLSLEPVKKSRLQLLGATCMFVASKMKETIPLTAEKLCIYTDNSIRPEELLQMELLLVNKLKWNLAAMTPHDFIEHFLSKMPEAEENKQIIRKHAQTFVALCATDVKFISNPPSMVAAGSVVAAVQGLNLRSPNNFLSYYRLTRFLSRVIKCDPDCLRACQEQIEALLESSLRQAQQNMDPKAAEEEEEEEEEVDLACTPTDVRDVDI

IC50 (CDK2/Cyclin E2) [nM] | IC50 (CDK4/Cyclin D1) [nM] | IC50 (OVCAR3 p-RB) [nM] | SMILES
≤ 100 | ≤ 100 | ≤ 100 | CC(O)c1ncc(-c2nc(NC3CCN(S(=O)(=O)c4cnn(C)c4)CC3)ncc2C(F)(F)F)s1 (stereo not drawn) [Example 82, 1-(5-(2-((1-((1-methyl-1H-pyrazol-4-yl)sulfonyl)piperidin-4-yl)amino)-5-(trifluoromethyl)pyrimidin-4-yl)thiazol-2-yl)ethan-1-ol]
≤ 100 | ≤ 100 | 100 to 1000 | [2H]C([2H])([2H])Nc1ncc(-c2nc(NC3CCN(S(C)(=O)=O)CC3)ncc2C(F)(F)F)s1 [Example 39, 5-[2-[(1-Methylsulfonylpiperidin-4-yl)amino]-5-(trifluoromethyl)pyrimidin-4-yl]-N-(trideuteriomethyl)-1,3-thiazol-2-amine]
≤ 100 | ≤ 100 | 100 to 1000 | Cn1cnc(S(=O)(=O)N2CCC(Nc3ncc(C(F)(F)F)c(-c4cnc(C(O)C(C)(C)O)s4)n3)CC2)c1 (stereo not drawn) [Example 75, 2-methyl-1-(5-(2-((1-((1-methyl-1H-imidazol-4-yl)sulfonyl)piperidin-4-yl)amino)-5-(trifluoromethyl)pyrimidin-4-yl)thiazol-2-yl)propane-1,2-diol]
≤ 100 | ≤ 100 | > 1000 | Cc1nc(CO)ccc1-c1ncc(-c2nc(NC3CCN(S(C)(=O)=O)CC3)ncc2C(F)(F)F)s1 [Example 10, [6-Methyl-5-[5-[2-[(1-methylsulfonylpiperidin-4-yl)amino]-5-(trifluoromethyl)pyrimidin-4-yl]-1,3-thiazol-2-yl]pyridin-2-yl]methanol]
≤ 100 | ≤ 100 | 100 to 1000 | CS(=O)(=O)N1CCC(Nc2ncc(C(F)(F)F)c(-c3cnc(N)s3)n2)CC1 [Example 20, 5-(2-((1-(methylsulfonyl)piperidin-4-yl)amino)-5-(trifluoromethyl)pyrimidin-4-yl)thiazol-2-amine]
≤ 100 | ≤ 100 | 100 to 1000 | CS(=O)(=O)N1CCC(Nc2ncc(C(F)(F)F)c(-c3cnc(-c4ccc(CO)cc4)s3)n2)CC1 [Example 6, [4-[5-[2-[(1-Methylsulfonylpiperidin-4-yl)amino]-5-(trifluoromethyl)-pyrimidin-4-yl]-1,3-thiazol-2-yl]phenyl]methanol]
≤ 100 | ≤ 100 | 100 to 1000 | Cc1ncc(-c2nc(NC3CCN(S(C)(=O)=O)CC3)ncc2C(F)(F)F)s1 [Example 19, N-(1-methylsulfonylpiperidin-4-yl)-4-(2-methyl-1,3-thiazol-5-yl)-5-(trifluoromethyl)pyrimidin-2-amine]
≤ 100 | ≤ 100 | 100 to 1000 | Cc1cc(CO)ccc1-c1ncc(-c2nc(NC3CCN(S(C)(=O)=O)CC3)ncc2C(F)(F)F)s1 [Example 12, [3-methyl-4-[5-[2-[(1-methylsulfonylpiperidin-4-yl)amino]-5-(trifluoromethyl)pyrimidin-4-yl]-1,3-thiazol-2-yl]phenyl]methanol]
≤ 100 | ≤ 100 | 100 to 1000 | CC(C)Oc1ncc(-c2nc(NC3CCN(S(C)(=O)=O)CC3)ncc2C(F)(F)F)s1 [Example 25, N-(1-Methylsulfonylpiperidin-4-yl)-4-(2-propan-2-yloxy-1,3-thiazol-5-yl)-5-(trifluoromethyl)pyrimidin-2-amine]
≤ 100 | 100 to 1000 | > 1000 | CS(=O)(=O)N1CCC(Nc2ncc(C(F)(F)F)c(-c3cnc(C(F)F)s3)n2)CC1 [Example 42, 4-[2-(Difluoromethyl)-1,3-thiazol-5-yl]-N-(1-methylsulfonylpiperidin-4-yl)-5-(trifluoromethyl)pyrimidin-2-amine]
≤ 100 | ≤ 100 | ≤ 100 | Cn1cnc(S(=O)(=O)N2CC[C@H](Nc3ncc(C(F)(F)F)c(-c4cnc(CC(C)(C)O)s4)n3)[C@H](F)C2)c1 [Example 74, 1-(5-(2-(((3R,4S)-3-fluoro-1-((1-methyl-1H-imidazol-4-yl)sulfonyl)piperidin-4-yl)amino)-5-(trifluoromethyl)pyrimidin-4-yl)thiazol-2-yl)-2-methylpropan-2-ol]
≤ 100 | ≤ 100 | ≤ 100 | Cn1cnc(S(=O)(=O)N2CCC(Nc3ncc(C(F)(F)F)c(-c4cnc(CC(C)(C)O)s4)n3)CC2)c1 [Example 70, 2-methyl-1-(5-(2-((1-((1-methyl-1H-imidazol-4-yl)sulfonyl)piperidin-4-yl)amino)-5-(trifluoromethyl)pyrimidin-4-yl)thiazol-2-yl)propan-2-ol]
≤ 100 | ≤ 100 | > 1000 | CN(c1ncc(-c2nc(NC3CCN(S(C)(=O)=O)CC3)ncc2C(F)(F)F)s1)C1CCCC1 [Example 33, N-cyclopentyl-N-methyl-5-(2-((1-(methylsulfonyl)piperidin-4-yl)amino)-5-(trifluoromethyl)pyrimidin-4-yl)thiazol-2-amine]
≤ 100 | 100 to 1000 | > 1000 | CS(=O)(=O)N1CCC(Nc2ncc(C(F)(F)F)c(-c3cnc(CO)s3)n2)CC1 [Example 24, [5-[2-[(1-methylsulfonylpiperidin-4-yl)amino]-5-(trifluoromethyl)pyrimidin-4-yl]-1,3-thiazol-2-yl]methanol]
≤ 100 | ≤ 100 | 100 to 1000 | CN(C)c1ncc(-c2nc(NC3CCN(S(C)(=O)=O)CC3)ncc2C(F)(F)F)s1 [Example 29, N,N-dimethyl-5-[2-[(1-methylsulfonylpiperidin-4-yl)amino]-5-(trifluoromethyl)pyrimidin-4-yl]-1,3-thiazol-2-amine]
≤ 100 | ≤ 100 | 100 to 1000 | CN(CCO)c1ncc(-c2nc(NC3CCN(S(C)(=O)=O)CC3)ncc2C(F)(F)F)s1 [Example 35, 2-(methyl(5-(2-((1-(methylsulfonyl)piperidin-4-yl)amino)-5-(trifluoromethyl)pyrimidin-4-yl)thiazol-2-yl)amino)ethan-1-ol]
≤ 100 | ≤ 100 | 100 to 1000 | CS(=O)(=O)N1CCC(Nc2ncc(C(F)(F)F)c(-c3cnc(NC4CC4)s3)n2)CC1 [Example 36, N-Cyclopropyl-5-[2-[(1-methylsulfonylpiperidin-4-yl)amino]-5-(trifluoromethyl)pyrimidin-4-yl]-1,3-thiazol-2-amine]
≤ 100 | ≤ 100 | ≤ 100 | Cn1cnc(S(=O)(=O)N2CCC(Nc3ncc(C(F)(F)F)c(-c4cnc(C(O)C(F)(F)F)s4)n3)CC2)c1 (stereo not drawn) [Example 90, 2,2,2-trifluoro-1-(5-(2-((1-((1-methyl-1H-imidazol-4-yl)sulfonyl)piperidin-4-yl)amino)-5-(trifluoromethyl)pyrimidin-4-yl)thiazol-2-yl)ethan-1-ol]
≤ 100 | ≤ 100 | 100 to 1000 | CC(O)c1ncc(-c2nc(N[C@@H]3CCN(S(=O)(=O)c4cnn(C)c4)C[C@H]3F)ncc2C(F)(F)F)s1 (stereo partly drawn) [Example 99, 1-(5-(2-(((3R,4R)-3-fluoro-1-((1-methyl-1H-pyrazol-4-yl)sulfonyl)piperidin-4-yl)amino)-5-(trifluoromethyl)pyrimidin-4-yl)thiazol-2-yl)ethan-1-ol]
100 to 1000 | 100 to 1000 | > 1000 | CN(C)c1ncc(-c2nc(NC3CCN(S(C)(=O)=O)CC3)ncc2C(F)F)s1 [Example 62, 5-[5-(Difluoromethyl)-2-[(1-methylsulfonylpiperidin-4-yl)amino]pyrimidin-4-yl]-N,N-dimethyl-1,3-thiazol-2-amine]
≤ 100 | ≤ 100 | 100 to 1000 | CCNc1ncc(-c2nc(NC3CCN(S(C)(=O)=O)CC3)ncc2C(F)(F)F)s1 [Example 32, N-ethyl-5-[2-[(1-methylsulfonylpiperidin-4-yl)amino]-5-(trifluoromethyl)pyrimidin-4-yl]-1,3-thiazol-2-amine]
≤ 100 | ≤ 100 | 100 to 1000 | CC(=O)N1CCC(S(=O)(=O)N2CCC(Nc3ncc(C(F)(F)F)c(-c4cnc(C(C)O)s4)n3)CC2)CC1 (stereo not drawn) [Example 88, 1-(4-((4-((4-(2-(1-hydroxyethyl)thiazol-5-yl)-5-(trifluoromethyl)pyrimidin-2-yl)amino)piperidin-1-yl)sulfonyl)piperidin-1-yl)ethan-1-one]
≤ 100 | ≤ 100 | 100 to 1000 | CCOc1ncc(-c2nc(NC3CCN(S(C)(=O)=O)CC3)ncc2C(F)(F)F)s1 [Example 52, 4-(2-Ethoxy-1,3-thiazol-5-yl)-N-(1-methylsulfonylpiperidin-4-yl)-5-(trifluoromethyl)pyrimidin-2-amine]
≤ 100 | 100 to 1000 | > 1000 | COC(=O)N(C)Cc1ccc(-c2ncc(-c3nc(NC4CCN(S(C)(=O)=O)CC4)ncc3C(F)(F)F)s2)c(C)c1 [Example 14, methyl N-methyl-N-[[3-methyl-4-[5-[2-[(1-methylsulfonylpiperidin-4-yl)amino]-5-(trifluoromethyl)pyrimidin-4-yl]-1,3-thiazol-2-yl]phenyl]methyl]carbamate]
